According to article PMC10747602, “Dose Response, Dosimetric, and Metabolic Evaluations of Replacement PFAS Perfluoro-(2,5,8-trimethyl-3,6,9-trioxadodecanoic) Acid (HFPO-TeA)” (Toxics, 2023):
Several values for one entry are separate records, joined by “and”; a condition that tells them apart may be missing. Identical values can stand only once.

Tests used:
[1] = parameters: method as in PMID 21948869, PMID 36309054; settings: cited from earlier work
[2] = Hepatocyte metabolic stability (clearance) assay, human hepatocytes; settings: human, hepatocytes, 1000 nM
Protocol: (§1) Information on the chemicals and materials used in the hepatocyte metabolic work can be found in Supplementary Text S9 and Table S3. In vitro evaluations of hepatocyte metabolic stability were performed in human and rat hepatocytes, as previously described. Briefly, pooled, cryopreserved hepatocyte suspensions were thawed, assessed for viability, and then diluted in William’s medium E containing dexamethasone and cell maintenance cocktail B to achieve a cell density of 50,000 cells/100 µL. The assay was started by adding hepatocyte suspensions to wells of 96-well polypropylene plates containing an equal volume of media with 2 µM of analyte (final assay concentration: 1 µM). Plates were placed in a 37 °C cell culture incubator (5% CO2) on a shaker set to 200 rpm. Time points assessed were T0, T15, T30, T60, T120, and T240 min. At each time point, the plates were removed from the shaker and the incubates were crashed with an equal volume of ice-cold ACN containing 1.2% FA and 16 ng/mL of ^13C3 -HFPO-DA. After chilling and centrifugation at 4122× g, the supernatants were transferred to new collection plates and stored at −70 °C until analysis for the parent compound on the Waters instrumentation described below. Immediately prior to analysis, samples were thawed, vortexed, and centrifuged at 4200× g, and then diluted 1:4 in 95:5 H2O/ACN with 2.5 mM of ammonium acetate. Negative controls, including no cell controls and metabolically inactivated hepatocytes, were run concurrently to assess the chemical stability over the time course.
(§2) Intrinsic clearance (Clint; hepatic clearance) calculations are detailed in Supplementary Text S9 [57].
(§3) Targeted, quantitative analysis of in vitro hepatocyte metabolic stability and plasma protein binding assay samples was conducted on a Waters Xevo-TQS micro mass spectrometer (Waters, Milford, MA, USA) ultra-high-performance liquid chromatography tandem mass spectrometry system (UPLC-MS/MS), modified with a PFAS analysis kit. Samples were analyzed in negative ion mode with UniSpray ionization. A CORTECS T3 column (Waters CORTECS, 3 × 100 mm, particle size 2.7 µm) was used for chromatographic separation with a flow rate of 0.6 mL/min and a temperature of 55 °C. Gradient elution was used with eluent A (95:5 H2O/ACN) and eluent B (95:5 ACN/H2O) with 2.5 mM of ammonium acetate. The gradient is available in Table S11. Additional details for MS parameters are found in Table S12 and monitored transitions are found in Table S13.
(§4) Table S2: Data processing parameters used with Sciex MarkerView 1.3.1.
(§5) Support ing Text S9: Hepatocyte Metabolic Stability Assay Materials, Chemicals, and Calculations
(§6) Pooled human and rat cryopreserved primary hepatocyte suspensions were both obtained from
(§7) BioIVT, a US Food and Drug Administration-licensed and inspected donor center, and produced using
(§8) non-transplantable tissue.
(§9) William’s E media, dexamet hasone (98% pure), and cell maintenance cocktail B were obtained from
(§10) Thermo Fisher Scientific (Waltham, MA, USA), the OptiThaw hepatocyte kit from Sekisui/Xenotech
(§11) (Tokyo, Japan), and the trypan blue s (Sekisui/ Xenotech, Tokyo, Japan) and the trypan blue solution from […]

human hepatocytes = assay: as above; settings: 1000 nM; for Negative Control Data, No cells (NC), Ln Concentration / Negative Control Data, Heat Treated (HT), Ln Concentration / Ln Concentration: Rep 1-3
Protocol: as §1, §2, §3, §4, §5, §6, §7, §8, §9, §10, §11

[3] = Hepatocyte metabolic stability (clearance) assay, rat hepatocytes; settings: both, Sprague Dawley, rat, hepatocytes
Protocol: as §1, §2, §3, §4, §5, §6, §7, §8, §9, §10, §11

rat hepatocytes = assay: as above; settings: 1000 nM
Protocol: as §1, §2, §3, §4, §5, §6, §7, §8, §9, §10, §11

Q: Which “underestimation of Css values by previous IVIVE evaluations” value [1] does the source give for O=S(=O)(O)C(F)(F)C(F)(F)C(F)(F)C(F)(F)C(F)(F)C(F)(F)C(F)(F)C(F)(F)F [PFOS, perfluorooctane sulfonic acid] here?
A: > 100 ×

Q: What does the source list for CCOc1ccc(NC(C)=O)cc1 [Phenactin, phenacetin, reference compound]?
A: hepatocyte CLint at 1 µM ([2]; Background-Subtracted Clint, human hepatocytes): 8.8 µL/min/1e6 cells; hepatocyte CLint at 1 µM ([2]; Clint, human hepatocytes, not background-subtracted): 12.1 µL/min/1e6 cells; half-life at 1 µM ([2]; HT-Background Half Life, heat treated human hepatocytes): 7.1 h; half-life at 1 µM ([2]; Half Life, human hepatocytes, time in min): 1.92 h; Negative Control Data, No cells (NC), Ln Concentration (human hepatocytes; 15 min): 3.8649 and 3.8943 and 3.8643; Negative Control Data, No cells (NC), Ln Concentration (human hepatocytes; 240 min): 3.9162 and 4.0144 and 3.9729; HT Background k (human hepatocytes; heat treated human hepatocytes): -0.0016; Negative Control Data, Heat Treated (HT), Ln Concentration (human hepatocytes; human hepatocytes, 15 min): 4.4085 and 4.9735 and 5.3748; Negative Control Data, Heat Treated (HT), Ln Concentration (human hepatocytes; human hepatocytes, 240 min): 4.6160 and 4.4891 and 4.5540; Ln Concentration (human hepatocytes; human hepatocytes, time 0 min): 3.7764 and 3.7975 and 3.7223; Ln Concentration (human hepatocytes; human hepatocytes, time 15 min): 3.8137 and 3.7544 and 3.6623; Ln Concentration (human hepatocytes; human hepatocytes, time 30 min): 3.5799 and 3.7106 and 3.6378; Ln Concentration (human hepatocytes; human hepatocytes, time 60 min): 3.3014 and 3.5121 and 3.4541; Linear Regression Best-Fit Slope (ln concentration vs time) (human hepatocytes; human hepatocytes, time in min): -0.006025; half-life at 1000 nM [3]: 1.44 h; hepatocyte CLint at 1000 nM [3]: 16.1 µL/min/1e6 cells; Negative Control Data, Heat Treated (HT), 15 min (rat hepatocytes; heat treated rat hepatocytes, 15 min, Ln concentration, Rep 1-3): 3.7605 and 3.8293 and 3.8230; Negative Control Data, Heat Treated (HT), 240 min (rat hepatocytes; heat treated rat hepatocytes, 240 min, Ln concentration, Rep 1-3): 3.8801 and 3.8626 and 3.3989; Negative Control Data, No cells (NC), 15 min (rat hepatocytes; no cells, 15 min, Ln concentration, Rep 1-3): 3.7121 and 3.7753 and 3.7677; Negative Control Data, No cells (NC), 240 min (rat hepatocytes; no cells, 240 min, Ln concentration, Rep 1-3): 3.8252 and 3.8743 and 4.0157; Ln Concentration, 0 min (rat hepatocytes; suspended rat hepatocytes, time 0 min, Rep 1-3): 3.7431 and 3.7883 and 3.8093; Ln Concentration, 15 min (rat hepatocytes; suspended rat hepatocytes, time 15 min, Rep 1-3): 3.7497 and 3.8776 and 3.8997; Ln Concentration, 30 min (rat hepatocytes; suspended rat hepatocytes, time 30 min, Rep 1-3): 3.5148 and 3.4871 and 3.5444; Ln Concentration, 60 min (rat hepatocytes; suspended rat hepatocytes, time 60 min, Rep 1-3): 3.0012 and 3.3979 and 3.4757; Ln Concentration, 120 min (rat hepatocytes; suspended rat hepatocytes, time 120 min, Rep 1-3): 2.7575 and 2.7517 and 2.9423; Ln Concentration, 240 min (rat hepatocytes; suspended rat hepatocytes, time 240 min, Rep 1-3): 2.0042 and 1.7029 and 2.0503; Linear Regression Best-Fit Slope (Ln concentration vs time) (rat hepatocytes; suspended rat hepatocytes, time in min): -0.008025
